Laboratory results published in paper PMC8896928, “Preparation, Characterization, and Preliminary Imaging Study of [^188Re]Re-Ibandronate as a Novel Theranostic Radiopharmaceutical for Bone Metastasis” (Contrast Media & Molecular Imaging, 2022).

Columns and labels:
[1] = tested on: fresh human plasma; details: 37°C, 2 h
From the text: The results are expressed as mean ± standard deviation ( χ¯ ± s).

[2] = Biodistribution in normal mice; assay type: in vivo, Kunming mice
Description: Twenty Kunming mice (originated from Swiss albino mice and introduced into Kunming, China.) were randomly divided into five groups (equal number of males and females). Each group was injected with 3.7 MBq [^188Re]Re-IBA. […] The blood and important tissue and organ samples were collected to measure the radioactivity count by γ counter. Following the time attenuation correction, the percentage injection dose rate per gram of tissue (%ID/g) was calculated at each time point. The result is expressed as mean ± standard deviation ( χ¯ ± s). The in vivo distribution of [^188Re]ReO4^− was studied using the aforementioned method.

Structure (SMILES): CCCCCN(C)CCC1(O)P(=O)(O)[O][188Re]2([OH])([OH])([O]P1(=O)O)[O]P(=O)(O)C(O)(CCN(C)CCCCC)P(=O)(O)[O]2 (stereo not drawn) [[^188Re]Re-IBA]
- PPB (plasma protein binding rate) [1]: 79.8 ± 0.71%
- %ID/g Blood ([2]; 1 h): 1.869 ± 0.665 %ID/g
- %ID/g Brain ([2]; 1 h): 0.072 ± 0.023 %ID/g
- %ID/g Femur ([2]; 1 h): 5.989 ± 1.680 %ID/g
- %ID/g Gonad ([2]; 1 h): 0.878 ± 0.426 %ID/g
- %ID/g Heart ([2]; 1 h): 0.488 ± 0.179 %ID/g
- %ID/g Kidney ([2]; 1 h): 5.894 ± 1.648 %ID/g
- %ID/g Liver ([2]; 1 h): 1.100 ± 0.165 %ID/g
- %ID/g Lung ([2]; 1 h): 1.297 ± 0.661 %ID/g
- %ID/g Muscle ([2]; 1 h): 0.550 ± 0.251 %ID/g
- %ID/g Small intestine ([2]; 1 h): 0.898 ± 0.494 %ID/g
- %ID/g Spleen ([2]; 1 h): 0.952 ± 0.336 %ID/g
- %ID/g Stomach ([2]; 1 h): 2.928 ± 0.851 %ID/g
- %ID/g Thyroid gland ([2]; 1 h): 0.594 ± 0.201 %ID/g
- Femur/heart radioactivity ratio ([2]; 1 h): 12.278
- Femur/liver radioactivity ratio ([2]; 1 h): 5.443
- Femur/muscle radioactivity ratio ([2]; 1 h): 10.880
- %ID/g Blood ([2]; 3 h): 0.785 ± 0.220 %ID/g
- %ID/g Brain ([2]; 3 h): 0.056 ± 0.010 %ID/g
- %ID/g Femur ([2]; 3 h): 7.105 ± 1.901 %ID/g
- %ID/g Gonad ([2]; 3 h): 0.611 ± 0.095 %ID/g
- %ID/g Heart ([2]; 3 h): 0.293 ± 0.118 %ID/g
- %ID/g Kidney ([2]; 3 h): 3.140 ± 0.799 %ID/g
- %ID/g Liver ([2]; 3 h): 0.794 ± 0.133 %ID/g
- %ID/g Lung ([2]; 3 h): 0.784 ± 0.196 %ID/g
- %ID/g Muscle ([2]; 3 h): 0.344 ± 0.143 %ID/g
- %ID/g Small intestine ([2]; 3 h): 0.597 ± 0.214 %ID/g
- %ID/g Spleen ([2]; 3 h): 0.475 ± 0.135 %ID/g
- %ID/g Stomach ([2]; 3 h): 2.801 ± 0.560 %ID/g
- %ID/g Thyroid gland ([2]; 3 h): 0.449 ± 0.171 %ID/g
- Femur/heart radioactivity ratio ([2]; 3 h): 24.214
- Femur/liver radioactivity ratio ([2]; 3 h): 8.949
- Femur/muscle radioactivity ratio ([2]; 3 h): 20.664
- %ID/g Blood ([2]; 6 h): 0.496 ± 0.207 %ID/g
- %ID/g Brain ([2]; 6 h): 0.045 ± 0.011 %ID/g
- %ID/g Femur ([2]; 6 h): 7.724 ± 2.292 %ID/g
- %ID/g Gonad ([2]; 6 h): 0.303 ± 0.141 %ID/g
- %ID/g Heart ([2]; 6 h): 0.199 ± 0.049 %ID/g
- %ID/g Kidney ([2]; 6 h): 2.763 ± 0.731 %ID/g
- %ID/g Liver ([2]; 6 h): 0.526 ± 0.087 %ID/g
- %ID/g Lung ([2]; 6 h): 0.506 ± 0.104 %ID/g
- %ID/g Muscle ([2]; 6 h): 0.220 ± 0.124 %ID/g
- %ID/g Small intestine ([2]; 6 h): 0.608 ± 0.192 %ID/g
- %ID/g Spleen ([2]; 6 h): 0.296 ± 0.108 %ID/g
- %ID/g Stomach ([2]; 6 h): 1.741 ± 0.368 %ID/g
- %ID/g Thyroid gland ([2]; 6 h): 0.399 ± 0.082 %ID/g
- Femur/heart radioactivity ratio ([2]; 6 h): 38.835
- Femur/liver radioactivity ratio ([2]; 6 h): 14.694
- Femur/muscle radioactivity ratio ([2]; 6 h): 35.182
- %ID/g Blood ([2]; 24 h): 0.058 ± 0.013 %ID/g
- %ID/g Brain ([2]; 24 h): 0.024 ± 0.013 %ID/g
- %ID/g Femur ([2]; 24 h): 6.177 ± 2.163 %ID/g
- %ID/g Gonad ([2]; 24 h): 0.059 ± 0.032 %ID/g
- %ID/g Heart ([2]; 24 h): 0.045 ± 0.012 %ID/g
- %ID/g Kidney ([2]; 24 h): 0.913 ± 0.173 %ID/g
- %ID/g Liver ([2]; 24 h): 0.122 ± 0.042 %ID/g
- %ID/g Lung ([2]; 24 h): 0.138 ± 0.037 %ID/g
- %ID/g Muscle ([2]; 24 h): 0.051 ± 0.020 %ID/g
- %ID/g Small intestine ([2]; 24 h): 0.078 ± 0.013 %ID/g
- %ID/g Spleen ([2]; 24 h): 0.189 ± 0.052 %ID/g
- %ID/g Stomach ([2]; 24 h): 0.098 ± 0.036 %ID/g
- %ID/g Thyroid gland ([2]; 24 h): 0.115 ± 0.036 %ID/g
- Femur/heart radioactivity ratio ([2]; 24 h): 137.083
- Femur/liver radioactivity ratio ([2]; 24 h): 50.645
- Femur/muscle radioactivity ratio ([2]; 24 h): 121.910
- %ID/g Blood ([2]; 48 h): 0.031 ± 0.009 %ID/g
- %ID/g Brain ([2]; 48 h): 0.009 ± 0.002 %ID/g
- %ID/g Femur ([2]; 48 h): 5.239 ± 2.029 %ID/g
- %ID/g Gonad ([2]; 48 h): 0.029 ± 0.009 %ID/g
- %ID/g Heart ([2]; 48 h): 0.019 ± 0.010 %ID/g
- %ID/g Kidney ([2]; 48 h): 0.399 ± 0.153 %ID/g
- %ID/g Liver ([2]; 48 h): 0.038 ± 0.020 %ID/g
- %ID/g Lung ([2]; 48 h): 0.040 ± 0.020 %ID/g
- %ID/g Muscle ([2]; 48 h): 0.016 ± 0.005 %ID/g
- %ID/g Small intestine ([2]; 48 h): 0.033 ± 0.010 %ID/g
- %ID/g Spleen ([2]; 48 h): 0.046 ± 0.009 %ID/g
- %ID/g Stomach ([2]; 48 h): 0.047 ± 0.019 %ID/g
- %ID/g Thyroid gland ([2]; 48 h): 0.070 ± 0.019 %ID/g
- Femur/heart radioactivity ratio ([2]; 48 h): 270.814
- Femur/liver radioactivity ratio ([2]; 48 h): 136.914
- Femur/muscle radioactivity ratio ([2]; 48 h): 325.483
